Measured values taken from patent US20100004284A1, “Novel Heterocyclic Compounds as Positive Allosteric Modulators of Metabotropic Glutamate Receptors” (ADDEX PHARMA SA, priority 2005, published 2010).

Key:
rat mGluR5 = biological target: T1, rat mGluR5 (Rattus norvegicus, UniProt P31424); assay: mGluR5 assay on HEK-expressing rat mGluR5 (fluorescent cell based Ca2+ mobilization assay); settings: HEK-293 cells stably expressing rat mGluR5; no co-addition of glutamate; mean of at least three independent experiments in duplicate; read-out: Ca++ Flux (mean EC50)
T1 construct: expressed in transfected cells
T1 sequence (P31424 21-1171 isoform P31424-2 limits assumed): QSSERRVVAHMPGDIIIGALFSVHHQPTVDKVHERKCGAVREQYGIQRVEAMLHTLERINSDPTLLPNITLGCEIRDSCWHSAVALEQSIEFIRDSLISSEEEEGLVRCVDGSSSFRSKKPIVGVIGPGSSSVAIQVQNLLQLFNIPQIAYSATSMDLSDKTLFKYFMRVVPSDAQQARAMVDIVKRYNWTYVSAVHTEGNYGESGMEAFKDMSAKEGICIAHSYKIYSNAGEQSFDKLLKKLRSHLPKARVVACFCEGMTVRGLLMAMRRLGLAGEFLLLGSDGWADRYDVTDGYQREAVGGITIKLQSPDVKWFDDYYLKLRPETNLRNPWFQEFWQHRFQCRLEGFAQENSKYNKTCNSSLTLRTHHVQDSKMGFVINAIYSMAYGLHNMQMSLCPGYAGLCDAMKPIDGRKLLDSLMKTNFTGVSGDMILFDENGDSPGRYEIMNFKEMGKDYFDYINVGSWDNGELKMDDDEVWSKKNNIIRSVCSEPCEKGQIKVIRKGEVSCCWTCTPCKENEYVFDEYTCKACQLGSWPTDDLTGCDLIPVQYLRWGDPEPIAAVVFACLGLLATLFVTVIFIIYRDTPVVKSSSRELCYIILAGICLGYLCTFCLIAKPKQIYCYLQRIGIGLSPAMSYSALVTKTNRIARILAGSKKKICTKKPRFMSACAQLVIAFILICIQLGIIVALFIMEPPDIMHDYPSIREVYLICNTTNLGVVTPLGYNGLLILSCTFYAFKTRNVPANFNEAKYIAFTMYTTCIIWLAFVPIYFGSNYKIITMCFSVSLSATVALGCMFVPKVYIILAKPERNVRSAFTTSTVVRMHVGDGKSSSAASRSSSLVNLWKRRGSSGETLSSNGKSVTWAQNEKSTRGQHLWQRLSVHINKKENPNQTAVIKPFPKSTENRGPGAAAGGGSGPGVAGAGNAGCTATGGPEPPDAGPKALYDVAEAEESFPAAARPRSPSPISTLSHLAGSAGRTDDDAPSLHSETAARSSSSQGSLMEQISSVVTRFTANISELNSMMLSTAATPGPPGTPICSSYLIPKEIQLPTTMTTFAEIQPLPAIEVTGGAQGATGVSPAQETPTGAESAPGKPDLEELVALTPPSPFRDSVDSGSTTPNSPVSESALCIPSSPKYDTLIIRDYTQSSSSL
Description: Positive functional expression of HEK-293 cells stably expressing rat mGluR5 receptor was determined by measuring intracellular Ca^2+ changes using a Fluorometric Imaging Plate Reader (FLIPR, Molecular Devices, Sunnyvale, Calif.) in response to glutamate or selective known mGluR5 agonists and antagonists. Rat mGluR5RT-PCR products in HEK-293 cells were sequenced and found 100% identical to rat mGluR5Genbank reference sequence (NM_017012). HEK-293 cells expressing rmGluR5 were maintained in media containing DMEM, dialyzed Fetal Bovine Serum (10%), Glutamax™ (2 mM), Penicillin (100 units/ml), Streptomycin (100 μg/ml), Geneticin (100 μg/ml) and Hygromycin-B (40 μg/ml) at 37° C./5% CO2.
After one day of incubation, cells were washed with assay buffer containing: 142 mM NaCl, 6 mM KCl, 1 mM […], 1 mM CaCl2, 20 mM HEPES, 1 g/L glucose, 0.125 mM sulfinpyrazone, pH 7.4. After 60 min of loading with 4 uM Fluo-4 (TefLabs, Austin, Tex.), the cells were washed three times with 50 μl of PBS Buffer and resuspended in 45 μl of assay Buffer. The plates were then transferred to a Fluorometric Imaging Plate Reader (FLIPR, Molecular Devices, Sunnyvale, Calif.) for the assessment of intracellular calcium flux. After monitoring the baseline fluorescence for 10 seconds, increasing concentrations of representative compound (from 0.01 to 60 μM) of the present invention diluted in Assay Buffer (15 μl of 4× dilutions) was added to the cell. The final DMSO concentration in the assay was 0.3%. In each experiment, fluorescence was then monitored as a function of time for 3 minutes and the data analyzed using Microsoft Excel and GraphPad Prism. Each data point was also measured two times.
Under these experimental conditions, this HEK-rat mGluR5 cell line is able to directly detect positive allosteric modulators without the need of co-addition of glutamate or mGluR5 agonist.
The concentration-response curves of representative compounds of the present invention were generated using the Prism GraphPad software (Graph Pad Inc, San Diego, USA). The curves were fitted to a four-parameter logistic equation:
(Y=Bottom+(Top−Bottom)/(1+10̂((Log EC50−X)*Hill Slope)
allowing determination of EC50 values.
The Table 5 below represents the mean EC50 obtained from at least three independent experiments of selected molecules performed in duplicate.

mGluR5 = biological target: T2, mGluR5 (Rattus norvegicus, UniProt P31424); assay: mGluR5 binding assay ([3H]-MPEP radioligand binding, rat brain membranes); settings: 3 nM [3H]-MPEP, 1 h at 4° C., read-out: IC50, inhibition of [3H]-MPEP binding
T2 construct: positive allosteric modulators of mGluR5 receptors in native preparations; endogenous in cells; host or cells: primary cortical astrocytes from Sprague-Dawley rat embryos (E16-19)
T2 sequence (P31424 21-1203): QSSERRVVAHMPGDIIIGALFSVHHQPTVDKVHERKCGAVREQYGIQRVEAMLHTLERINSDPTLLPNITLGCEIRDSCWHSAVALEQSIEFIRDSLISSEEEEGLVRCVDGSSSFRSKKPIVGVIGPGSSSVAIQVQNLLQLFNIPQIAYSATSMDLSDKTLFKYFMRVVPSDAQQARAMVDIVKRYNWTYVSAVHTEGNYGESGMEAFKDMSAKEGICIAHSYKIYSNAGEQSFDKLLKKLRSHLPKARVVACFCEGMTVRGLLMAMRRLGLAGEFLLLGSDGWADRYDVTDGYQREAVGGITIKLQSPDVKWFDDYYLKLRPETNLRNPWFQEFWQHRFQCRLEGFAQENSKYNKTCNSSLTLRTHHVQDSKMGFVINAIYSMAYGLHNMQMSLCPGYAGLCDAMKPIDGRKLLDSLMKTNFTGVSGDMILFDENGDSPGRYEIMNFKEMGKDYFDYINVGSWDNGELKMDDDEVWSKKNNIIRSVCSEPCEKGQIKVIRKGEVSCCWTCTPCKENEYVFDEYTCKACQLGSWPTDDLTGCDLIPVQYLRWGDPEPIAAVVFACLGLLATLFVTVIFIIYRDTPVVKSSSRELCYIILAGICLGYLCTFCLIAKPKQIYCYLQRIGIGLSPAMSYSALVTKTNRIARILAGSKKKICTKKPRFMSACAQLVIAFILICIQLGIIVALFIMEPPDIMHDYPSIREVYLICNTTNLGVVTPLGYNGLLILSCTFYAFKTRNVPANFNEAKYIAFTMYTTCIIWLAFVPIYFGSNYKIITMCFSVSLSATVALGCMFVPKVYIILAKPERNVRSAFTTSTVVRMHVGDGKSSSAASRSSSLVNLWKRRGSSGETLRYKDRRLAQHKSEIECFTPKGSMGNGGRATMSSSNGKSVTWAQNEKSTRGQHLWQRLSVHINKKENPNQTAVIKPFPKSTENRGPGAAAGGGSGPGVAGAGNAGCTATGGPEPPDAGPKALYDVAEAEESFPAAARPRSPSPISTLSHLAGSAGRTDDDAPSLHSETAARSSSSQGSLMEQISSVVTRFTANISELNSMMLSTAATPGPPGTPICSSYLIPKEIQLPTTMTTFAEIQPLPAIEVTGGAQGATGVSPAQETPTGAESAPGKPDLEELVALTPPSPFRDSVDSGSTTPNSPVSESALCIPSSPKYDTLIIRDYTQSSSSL
From the text: Activity of compounds of the invention was examined following a radioligand binding technique using whole rat brain and tritiated 2-methyl-6-(phenylethynyl)-pyridine ([^3H]-MPEP) as a ligand following similar methods than those described in Gasparini et al. (2002) Bioorg. Med. Chem. Lett. 12:407-409 and in Anderson et al. (2002) J. Pharmacol. Exp. Ther. 303 (3) 1044-1051.
Cortices were dissected out from brains of 200-300 g Sprague-Dawley rats (Charles River Laboratories, L'Arbresle, France). Tissues were homogenized in 10 volumes (vol/wt) of ice-cold 50 mM HEPES-NaOH (pH 7.4) using a Polytron disrupter (Kinematica AG, Luzern, Switzerland) and centrifuged for 30 min at 40,000 g. (4° C.). […] Protein concentration was determined by the Bradford method (Bio-Rad protein assay, Reinach, Switzerland) with bovine serum albumin as standard.
Membranes were thawed and resuspended in binding buffer containing 20 mM HEPES-NaOH, 3 mM MgCl2, 3 mM CaCl2, 100 mM NaCl, pH 7.4. […] Radioactivity was determined by liquid scintillation spectrometry using a 96-well plate reader (TopCount, Perkin-Elmer, Downers Grove, USA).
The inhibition curves were generated using the Prism GraphPad program (Graph Pad Software Inc, San Diego, USA). […] The mean of IC50 obtained from at least three independent experiments of selected molecules performed in duplicate were calculated.

In the case of `O=C(c1ccc(F)cc1)N1CCC[C@H](c2nc(Cc3ccc(F)cc3)no2)C1` [Example 1, {(S)-3-[3-(4-Fluoro-benzyl)-[1,2,4]oxadiazol-5-yl]-piperidin-1-yl}-(4-fluoro-phenyl)-methanone], the EC50 (rat mGluR5) is reported as under 1 µM and the IC50 (mGluR5) is reported as under 30 µM.
